# Test results taken from patent publication US9884874B2, “Bromodomain-inhibiting compounds and pharmaceutical composition comprising same for preventing or treating a cancer” (KAINOS MEDICINE, INC., priority 2014, dated 2018).
# Experiments:
# [1] = Animal pharmacokinetics in ICR mice; type: in vivo; conditions: ICR, mouse, 10 mg/kg
# Protocol: Pharmacokinetics of the compounds of 1, 2, 7, 8 11 and 15 were evaluated in ICR mice (6˜8 weeks, 20˜25 g) following intravenous (IV) administration at 10 mg/kg and per oral (PO) administration at 10 mg/kg dose level, respectively. Especially, the additional dose level of Compound 1 was 30 mg/kg.
# For serum compound analysis, blood samples were collected by cardiac puncture over 24 hr time course. 20 μL of spiked plasma was added into a 96-well plate, adding ten volumes of internal standard (IS) in acetonitrile (ACN) to the obtained precipitated protein mixed thoroughly, centrifuged at 4,000 rpm for 10 min. 150 μL of supernatant thus obtained was transferred to another pre-labeled 96-well plate, mixed with 150 μL of water. 5 μL or 10 μL of the mixture was injected into the LC-MS system under the following conditions:
# Column: API-4000+Waters UPLC (TCLM08);
# Lower limit of quantification (LLOQ) was at 1 ng/mL. Pharmacokinetic parameters of half-life (T1/2), clearance (CL), maximum plasma concentration (Cmax), mean residence time (MRT) and bioavailability (F %), plasma exposure (AUC) of the compound were calculated using Phoenix WinNonlin 6.3 (non-compartmental model).
# OPM-2 (multiple myeloma) = experiment: Anti-proliferative activity, OPM-2; type: cell-based; conditions: Homo sapiens, read-out: Cell proliferation, IC50
# SK-LU-1 (adenocarcinoma) = experiment: Anti-proliferative activity, SK-LU-1; type: cell-based; conditions: Homo sapiens, SKLU-1 (Adenocarcinoma), read-out: Cell proliferation, IC50
# [2] = system: A375 (malignant melanoma); experiment: Anti-proliferative activity, A375; type: cell-based; conditions: Homo sapiens, A-375, read-out: Cell proliferation, IC50
# [3] = system: MV4-11 (human leukemia cell line); experiment: Anti-proliferative activity test (CellTiter-Glo), MV4-11; type: cell-based; conditions: second value of LnCAP/MV4-11 cell, read-out: Cell proliferation IC50 (MV4-11)
# Protocol: (§1) IC50 (uM) of the compounds obtained in Examples 1 to 18 against hematological cancer cells and solid tumors was measured for identifying anti-proliferative activities.
# (§2) A human prostatic adenocarcinoma cell line, LnCAP (ATCC®, CRL-1740) and human leukemia cell line MV4-11 (ATCC®, CRL-9591) were used to test the degrees of the compounds 1 to 18 in inhibiting the cancer cell growth. The testing cell concentration was adjusted to 6.7×10^3 cells/ml with a culture medium supplemented with 10% FBS, in the temperature of 37° C., 5% CO2 and 95% humidity. Culture media and FBS were purchased from GIBCO. 90 μL of cell suspensions thus obtained was added to two 96-well plates with the final cell density of 600 cells/well, followed by addition of 10 μL of culture medium to each well of plate. The plates were incubated overnight in a humidified incubator at 37° C. with 5% CO2.
# (§3) Compounds 1 to 18 were each dissolved with dimethylsulfoxide (DMSO) or phosphate buffer solution (PBS) as a stock solution, and 200× solutions of test compound (2 mM) using DMSO were prepared. Then, the DMSO solution thus obtained was diluted 20-fold with culture medium or PBS to obtain 10× working solution. 10 μL of 10× working solution (drug solution) was dispensed to each well (triplicate for each concentration). The final concentration of DMSO in culture medium was 0.5% [v/v].
# (§4) Cell viability was determined using CellTiter-Glo® (CTG) assay. 100 μL of CellTiter-Glo® was added to the equal volume of the cultured cells to read luminescence in EnVision Multi Label Reader.
# [4] = Mouse liver microsomal stability/clearance; type: in vitro ADME; conditions: mouse liver microsomes; second value of Human/Mouse cell; read-out: Liver microsomal clearance (Mouse)
# Protocol: (§5) Human and mouse liver microsomal clearance assays were carried out in CROWN Biosciences (Taicang, China). The human liver microsomes (Cat No. X008067, Lot No. KQB) and mouse liver microsomes (Cat No. M1000, Lot No. 1210302) were purchased from Celsis and Xenotech, respectively.
# (§6) 5 μL of test compound stock solution was diluted with 495 μL of 1:1 Methanol/Water (final concentration: 100 μM, 50% MeOH) and combined with 534 μL of the respective liver microsome solution (final concentration: 1.111 μM, 0.555% MeOH). The final concentration of the liver microsome solution was 0.7 mg protein/mL.
# (§7) Incubations of the liver microsome solutions were performed in a 96 well plate at 37° C. 90 μL of the liver microsome solutions were added to Blank, and 90 μL of working solution of the test compound was added to all plates except the Blank.
# (§8) All plates thus obtained were warmed in water bath at 37° C. for 10 min, and 10 μL of NADPH co-factor solution comprising 42 mg of β-nicotinamide adenine dinucleotide phosphate (Sigma Cat. No. N0505 Lot 020M7009V), 84 mg of isocitric acid (Sigma Cat. No. 11252 Lot 119K1099) and 0.478 mL of isocitric dehydrogenase (Sigma Cat. No. 12002 Lot 086K7055, 15 units/mg protein, warmed in water bath at 37° C. for 5 min was added to the plates. The resulting plates were incubated at 37° C. in the following order: T60 (The test compounds were incubated with the liver microsomal solution and NADPH for 60 min at 37° C.), T30 (such as for 30 min.), and T10 (such as for 10 min.). 300 μL of a cold (4° C.) stop solution (acetonitrile (ACN) including 500 nM of tolbutamide as internal standard) and 10 μL of NADPH co-factor solution to starting plate (T0: 100% of the parent compound without any reaction) were added to the plates. The reaction was stopped by adding 300 μL of the cold (4° C.) stop solution to the other plates in the following order: T10 first, then T30 and T60.
# (§9) The samples were centrifuged at 4,000 rpm for 20 min and transferred to Bioanalytical Services for liquid chromatography-mass spectrometry (LC-MS)/MS (Waters UPLC/API 4000, 10 μL injection) analysis.
# human BRD4 bromodomain 1 = human BRD4 bromodomain 1 (Homo sapiens (Human), UniProt O60885); experiment: Bromodomain binding assay (BRD4 Alpha-screen); conditions: acetylated histone H4 peptide
# Protocol: Bromodomain binding assays were carried out in Reaction Biology (PA, USA) to test the degrees of the inventive compounds in inhibiting the human BRD4 bromodomain 1 by Alpha-screen assay method.
# Recombinant human BRD4 bromodomain 1 expressed in E. coli with N-terminal His-tag was used as the enzyme target.
# A synthetic peptide ([…]-GSGSK-biotin) containing 1 to 21th amino acids of histone H4 acetylated at lysine 5, 8, 12 and 16 and conjugated to biotin was purchased from Millipore.
# BRD4-1 (44 to 170th amino acids; Genbank Accession # NM_058243) was expressed in E. coli with N-terminal His-tag (see, Ni-NTA spin Kit Handbook (Qiagen), second edition, January, 2008). Nickel-Chelate ALPHA acceptor beads (Perkin Elmer) were used to specifically bind BRD4-1, and ALPHA streptavidin donor beads (Perkin Elmer) were used because they specifically recognized the biotinylated H4 peptide.
# BRD binding assays were performed in a mixture comprising 50 mM Hepes (pH7.5), 100 mM NaCl, 0.05% CHAPS, 0.1% BSA, and 1% DMSO. After an assay reaction time of 60 min at 25° C., binding was measured with streptavidin donor beads and nickel-chelate acceptor beads. ALPHA signal was detected on Enspire (Ex/Em=680/520-620 nm). IC50 values were calculated from the fit of the dose-response curves. All IC50 values represent geometric mean values of a minimum of four determinations. These assays generally produced results within 3-fold of the reported mean.
# [5] = Human liver microsomal stability/clearance; type: in vitro ADME; conditions: human liver microsomes; first value of Human/Mouse cell; read-out: Liver microsomal clearance (Human)
# Protocol: as §5, §6, §7, §8, §9
# [6] = system: LnCAP (human prostatic adenocarcinoma cell line); experiment: Anti-proliferative activity test (CellTiter-Glo), LnCAP; type: cell-based; conditions: first value of LnCAP/MV4-11 cell, read-out: Cell proliferation IC50 (LnCAP)
# Protocol: as §1, §2, §3, §4
Structure (SMILES),"AUC ([1]; in vivo, IV) [µM·h]","MRT ([1]; in vivo, IV) [h]","clearance ([1]; in vivo, IV) [mL/min/kg]","AUC ([1]; in vivo, PO) [µM·h]","MRT ([1]; in vivo, PO) [h]","bioavailability ([1]; in vivo, PO) [%]",IC50 (OPM-2 (multiple myeloma)) [nM],IC50 (SK-LU-1 (adenocarcinoma)) [nM],IC50 [2] [nM],IC50 [3] [nM],microsomal CLint at 1 µM [4] [µL/min/mg],IC50 (human BRD4 bromodomain 1) [nM],microsomal CLint at 1 µM [5] [µL/min/mg],IC50 [6] [nM],"AUC ([1]; plasma, IV) [µM·h]","MRT ([1]; plasma, IV) [h]","clearance ([1]; plasma, IV) [mL/min/kg]","AUC ([1]; plasma, PO) [µM·h]","MRT ([1]; plasma, PO) [h]","bioavailability ([1]; plasma, PO) [%]"
"CCS(=O)(=O)OC[C@@H]1N=C(c2ccc(Cl)cc2)c2cc(OC)ccc2-n2c(C)nnc21 [Compound 2, (R)-(6-(4-chlorophenyl)-8-methoxy-1-methyl-4H-benzo[f][1,2,4]triazolo[4,3-a][1,4]diazepin-4-yl)methyl ethanesulfonate]",73,3.9,4.9,66,4.1,89.8,650,1450,9300,410,8.1,220,1.9,600,–,–,–,–,–,–
"COc1ccc2c(c1)C(c1ccc(C#N)cc1)=N[C@@H](COS(C)(=O)=O)c1nnc(C)n1-2 [Compound 7, (R)-(6-(4-cyanophenyl)-8-methoxy-1-methyl-4H-benzo[f][1,2,4]triazolo[4,3-a][1,4]diazepin-4-yl)methyl methanesulfonate]",17.3,–,22.5,8.19,–,47.4,–,–,–,3340,3.4,230,2.1,830,–,–,–,–,–,–
"COc1ccc2c(c1)C(c1ccc(Cl)cc1)=N[C@@H](COS(N)(=O)=O)c1nnc(C)n1-2 [Compound 8, (R)-(6-(4-chlorophenyl)-8-methoxy-1-methyl-4H-benzo[f][1,2,4]triazolo[4,3-a][1,4]diazepin-4-yl)methyl sulfamate]",41,–,9,31.5,–,62.3,–,–,–,1490,5,220,5,960,–,–,–,–,–,–
"Cc1sc2c(c1C)C(c1ccc(Cl)cc1)=N[C@@H](COS(C)(=O)=O)c1nnc(C)n1-2 [Compound 15, (R)-(4-(4-chlorophenyl)-2,3,9-trimethyl-6H-thieno[3,2-f][1,2,4]triazolo[4,3-a][1,4]diazepin-6-yl)methyl methanesulfonate]",–,–,–,–,–,–,–,–,–,500,22,100,20,480,27,1.9,13.5,31,2.5,105
"Cc1nnc2n1-c1ccc(-c3cnn(C)c3)cc1C(c1ccc(Cl)cc1)=N[C@H]2COS(C)(=O)=O [Compound 11, (R)-(6-(4-chlorophenyl)-1-methyl-8-(1-methyl-1H-pyrazol-4-yl)-4H-benzo[f][1,2,4]triazolo[4,3-a][1,4]diazepin-4-yl)methyl methanesulfonate]",20,–,16.8,11.7,–,58.4,–,–,–,320,8.6,87,8.6,190,–,–,–,–,–,–
